# Patent publication US20260137084A1, “NOVALURON MIXTURES FOR EFFICIENT INSECTICIDAL CONTROLS” (ADAMA MAKHTESHIM LTD., priority 2022, published 2026)
# What was measured:
# S. frugiperda = assay: Insecticidal efficacy (% control) and Colby synergy against S. frugiperda; assay type: in vivo, Spodoptera frugiperda; conditions: 120 hours after treatment
# Description: (§1) Different concentrations of each of the active ingredients are applied to different species of insects. The percent controls are determined sometime after treatment.
# (§2) Colby's method, is used to determine if synergy exists for a combination of active ingredients. According to Colby, the expected action (E) of active ingredients A+B is:
# (§3) [formula] • where E=expected efficacy, A and B=the efficacy of two active ingredients A and B at a given dose.
# (§4) When the percentage of control observed (O) for the combination is greater than the expected (E) percentage, there is a synergistic effect. The synergism ratio (R) is calculated as the ratio between the […].
# (§5) The insecticidal compounds A (Novaluron) and B (mix partner) are formulated as equivalent compositions to eliminate the effects of differing formulation inerts on biological activity. Efficacy of the insecticidal compositions is evaluated with reference to a scale of 0% to 100% in comparison with untreated control plots. 0 means no damage and 100 means complete destruction of the harmful pests.
# (§6) The experiments were conducted by applying commercially available formulations of Novaluron and other mixture partners, alone or with their tank-mixed compositions with the same weight ratio. The compositions were diluted with water or some other suitable solvents to the stated concentration of the active compounds.
# (§7) Each formulation with active ingredient is diluted with water or other suitable solvent(s) to the ppm (parts per million) level and biological efficacy trials on pests are conducted.
# H. armigera = assay: Insecticidal efficacy (% control) and Colby synergy against H. armigera; assay type: in vivo, Helicoverpa armigera; conditions: 120 hours after treatment
# Description: as §1, §2, §3, §4, §5, §6, §7
compound,measurement,setting,value
O=C(N=c1ccccn1Cc1ccc(Cl)nc1)C(F)(F)F [Flupyrimin],Observed % control (O),S. frugiperda; Rate 10 ppm,10%
CCN1OCC(NC(=O)c2ccc(C3=NOC(c4cc(Cl)c(F)c(Cl)c4)(C(F)(F)F)C3)cc2C)C1=O (centres unmarked) [Isocycloseram],Observed % control (O),H. armigera; Rate 10 ppm,20%
same,Observed % control (O),H. armigera; Rate 20 ppm,50%
same,Observed % control (O),S. frugiperda; Rate 5 ppm,20%
same,Observed % control (O),S. frugiperda; Rate 10 ppm,20%
CCN(C(=O)CCSCCC(F)(F)F)c1cn(-c2cccnc2)nc1Cl [Tyclopyrazoflor],Observed % control (O),H. armigera; Rate 160 ppm,20%
same,Observed % control (O),S. frugiperda; Rate 5 ppm,20%
Cc1cccn2c(=O)c(-c3cc(Cl)cc(Cl)c3)c([O-])[n+](Cc3cnc(Cl)s3)c12 [Dicloromezotiaz],Observed % control (O),H. armigera; Rate 40 ppm,40%
same,Observed % control (O),S. frugiperda; Rate 1 ppm,0%
same,Observed % control (O),S. frugiperda; Rate 2.5 ppm,40%
same,Observed % control (O),S. frugiperda; Rate 5 ppm,20%
"O=C(NC(=O)c1c(F)cccc1F)Nc1ccc(OC(F)(F)C(F)OC(F)(F)F)c(Cl)c1 (single isomer, unassigned; (+)) [Novaluron, (+)-1-[3-chloro-4-(1,1,2-trifluoro-2-trifluoromethoxyethoxy)phenyl]-3-(2,6-difluorobenzoyl) urea]",Observed % control (O),H. armigera; Rate 0.1 ppm,20%
same,Observed % control (O),H. armigera; Rate 0.2 ppm,20%
same,Observed % control (O),S. frugiperda; Rate 0.01 ppm,16%
Nicofluprole,Observed % control (O),H. armigera; Rate 5 ppm,30%
same,Observed % control (O),S. frugiperda; Rate 0.5 ppm,20%
same,Observed % control (O),S. frugiperda; Rate 1 ppm,40%
